The source of these data is US5612474A, “Acid labile immunoconjugate intermediates” (Eli Lilly and Company, priority 1994, dated 1997).

≈ marks a conversion by molar mass, not a printed value.

A short description of series [1]: Cardiotoxicity / toxicity of free drug versus trityl prodrug (no method described). To be noted: for use in oncolytic therapy.
Series [2] deals with LS-174T human colon carcinoma. In words: Cytotoxicity assay of immunoconjugates, 3H-leucine uptake, 48 hours. The series is classed as cell-based. To be noted: LS174T, LS 174T cells, 48 hours incubation, concentrations in terms of drug contained in conjugate. The source says:
Table III uses several abbreviations which are defined as follows. The terms D612, COL-1, CC83, and CC49 refer to specific murine monoclonal antibodies which are described in detail in the Antibody section of the Detailed Description. […] "CR#" is an abbreviation for conjugation ratio. "MIR" refers to the molar input ratio of the linker-drug relative to the antibody.

The test system of series [3] is CCRF-CEM cells. The experiment in a line: In vitro antitumor activity / growth inhibition of CCRF-CEM cells, 72 hours. Type of series: cell-based. The settings on record: Homo sapiens, serum-free UltraCHO media, read-out: IC50 (50% inhibition of growth). As to the method:
The in vitro data were obtained using CCRF-CEM cells, a human leukemia cell line. Foley et al., Cancer, 18:522 (1965). These cells were grown in albumin-free UltraCHO® media (BioWhittaker, Inc., Walkersville, Md.) using standard techniques. See, e.g., G. B. Grindey, et al., Journal of Molecular Pharmacology, 16:601 (1979). Dose-response curves were generated for various compounds to determine the concentration required for 50% inhibition of growth (IC50). Cluster plates were prepared in duplicate with the compound at various concentrations. Test compounds were dissolved initially in DMSO at a concentration of 4 mg/ml and further diluted with solvent to the desired concentration. Cells in serum-free UltraCHO media were added to the well at a final concentration of 4.8×10^4 cells/well in a total volume of 2.0 ml. After 72 hours of incubation (95% air, 5% CO2), cell numbers were determined on a ZBI Coulter counter. Cell number for indicated controls at the end of incubation was usually (4-6)×10^5 cells/well. Cell viability was also measured by staining with 3-[4,5-dimethylthiazol-2-yl]-2,5-diphenyl-tetrazolium bromide (MTT) using standard techniques. R. I. Freshhey, Culture of Animal Cells: A Manual of Basic Technique, 253-354 (2d ed. 1987).
Column 1 refers to the example number of the compound tested; Column 2 depicts the in vitro cytoxicity against CCRF-CEM cells by relating the concentration of the test compound required for 50% inhibition of growth (IC50) of the cells in the well.

In series [4] the test system is HC-1 human colon carcinoma xenograft. The experiment in a line: Antitumor activity against HC-1 human colon carcinoma xenografts in nude mice. The series is classed as in vivo, human tumor in CD1 Nu/Nu mice. The settings on record: for Activity (overall): overall activity over all doses. An excerpt:
One of the tumor models used for showing the anti-neoplastic activity of the prodrugs of this invention were the human colon xenografts, HC-1 human colon xenograft. This tumor model was obtained from the Division of Cancer Treatment, National Cancer Institute, Tumor Bank.
First passage tumors were stored in liquid nitrogen, using standard techniques. The transplanted tumor was reestablished from the Tumor Bank every six months or as needed. The tumor was maintained by serial passage twice weekly in nude mice.
In the procedures utilized here, the tumor was removed from passage animals and minced into 1- to 3-mm cubic fragments using sterile techniques. Tumor pieces were checked for sterility using both Antibiotic Medium 1 and Brain Heart Infusion (Difco, Detroit, Mich.). The xenograft tumor pieces were implanted into the recipient CD1 Nu/Nu mice subcutaneously in an axillary site by trochar.
Drug therapy on the appropriate schedule was initiated 14 days after tumor implantation for the mice bearing the xenograft tumors. The compound being tested was mixed with 2.5% Emulphor EL620 from GAP Corporation (1:40 dilution in 0.9% saline). The total dosage volume for each administration was 0.5 ml. All animals were weighed at the beginning and end of administration of the subject compounds. Food and water were provided ad libitum.
Each control group and each dosage level of the treated groups consisted of 9 or 10 mice selected at random from the pool of implanted animals. The formulations were administered intraperitoneally. Compounds were dosed on days 1, 4, 7, and 10 for all prodrugs except for MMeT which was dosed on days 1,5, and 9.
The tumor was measured five days after treatment ended with two dimensional measurements (width and length) of the tumor taken using digital electronic calipers interfaced to a microcomputer. J. P. Worzalla, et al., Investigational New Drugs, 8:241-251 (1990). Tumor weights were calculated from these measurements using the following formula: [formula] At least one control group of an equal number of mice was treated with the same volume of 2.5% Emulphor only. The percent inhibition is determined by subtracting the ratio of the mean tumor size of the test group relative to the control group from one and multiplying the result by 100.
The results of several experiments in mice bearing the HC-1 human colon carcinoma when the Formula III compounds were administered orally are provided in Table V. Row 1 describes the particular compound being tested. Row 15 describes the overall activity of the compound. Column 1 gives the dosage level of the compound of Formula III and ADDFA in mg/kg. The second column gives the percent inhibition of tumor growth by the ADDFA given systemically. Colums 3 through 7 gives the percent inhibition of tumor growth of the compounds of Formula III.
(In general: A xenograft is tissue or cells of one species grown in another, often human tumour cells in immunodeficient mice.)

Series [5] in a line: Release studies: rate of free drug release from isopropylamide linker-drug by NMR. Type of series: physicochemical. As to the method:
The isopropylamide linker-drug (2 mg) was dissolved in 0.3 ml of dry deuterated methanol (CD3 OD). A solution of potassium phosphate buffer in deuteratured water (D2 O) (0.2 ml) of appropriate pH was added. The resulting solution was transferred to an NMR tube and heated at 37° C. and NMR spectra were recorded periodically. The rate of appearance of free drug and the rate of disappearance of the starting material were calculated from the peak integrals at: […]
NMR spectra (CD3 OD/0.1M KD2 PO4)

[6] abbreviates: pH 5.40, CD3OD/0.1M KD2PO4, 37° C.
Setting [7] is: pH 6.40, CD3OD/0.1M KD2PO4, 37° C.
Setting [8] is: pH 7.40, CD3OD/0.1M KD2PO4, 37° C., extrapolated.

By IC50 is commonly meant the concentration that inhibits the measured activity by half. On to `Nc1nc(N)c2ncn([C@@H]3O[C@H](CO)[C@@H](O)C3(F)F)c2n1` [ADDFA, 2-Amino-2'-deoxy-2',2'-difluoroadenosine, reference compound], for which the cardiotoxicity result in series [1] was “too much cardiotoxicity”. For the same compound, the values for the IC50 in series [2] and in series [3] were 0.26 µg/mL (≈ 0.86 µM) and 0.024 µg/mL (≈ 0.0794 µM), respectively. The “Percent Inhibition” value in series [4] (17.5 mg/kg), in series [4] (20.0 mg/kg), in series [4] (25.0 mg/kg), in series [4] (32.5 mg/kg), in series [4] (35.0 mg/kg) and in series [4] (40.0 mg/kg) was 100% each time. For the same compound, the “Percent Inhibition” value in series [4] (50.0 mg/kg), in series [4] (65.0 mg/kg), in series [4] (70.0 mg/kg), in series [4] (80.0 mg/kg), in series [4] (100.0 mg/kg) and in series [4] (130.0 mg/kg) was 100% in each case. For the same compound, the “Activity (overall)” value in series [4] is “+++ (95-100% Inhibition)”.
Take `COc1ccc(C(Nc2nc(N)nc3c2ncn3[C@@H]2O[C@H](CO)[C@@H](O)C2(F)F)(c2ccc(OC)cc2)c2ccc(C(=O)NC(C)C)cc2)cc1` [DMT, N-Isopropyl-4-[bis-(4-methoxyphenyl)-6-N-[2-amino-9-(2'-deoxy-2',2'-difluoro-β-ribofuranosyl)purinyl]methyl]benzamide]: the t1/2 in series [5] (setting [6]) stood at 3.71 h; in series [5] (setting [7]), 14.8 h; in series [5] (pH 7.40, CD3OD/0.1M KD2PO4, 37° C.), 146.3 h. In addition, the IC50 in series [3] was 0.078 µg/mL (≈ 0.113 µM). Besides, the “Percent Inhibition” value is 97% in series [4] (25.0 mg/kg), 99% in series [4] (50.0 mg/kg) and 99% in series [4] (100.0 mg/kg). Further, in series [4], the “Activity (overall)” value is “+++ (95-100% Inhibition)”.
Turning to `COc1ccc(C(Nc2nc(N)nc3c2ncn3[C@@H]2O[C@H](CO)[C@@H](O)C2(F)F)(c2ccccc2)c2ccc(C(=O)NC(C)C)cc2)cc1` (stereo partly shown) [MMT], the t1/2 in series [5] (setting [6]) is 16.7 h; in series [5] (pH 6.40, CD3OD/0.1M KD2PO4, 37° C., extrapolated), 547 h; in series [5] (setting [8]) it was 800 h. The IC50 in series [3] is 0.1 µg/mL (≈ 0.152 µM). Also, the “Percent Inhibition” value came out at 95% in series [4] (32.5 mg/kg), 96% in series [4] (65.0 mg/kg) and 93% in series [4] (130.0 mg/kg). In series [4], the “Activity (overall)” value is “+++ (95-100% Inhibition)”.
As to `COc1ccc(C(Nc2nc(N)nc3c2ncn3[C@@H]2O[C@H](CO)[C@@H](O)C2(F)F)(c2ccc(C)cc2)c2ccc(C(=O)NC(C)C)cc2)cc1` (stereo partly drawn) [MMeT, N-Isopropyl-4-[4-methoxyphenyl-4'methylphenyl-6-N-[2-amino-9-(2'-deoxy-2',2'-difluoro-β-ribofuranosyl)purinyl]methyl]benzamide], the IC50 in series [3] was 0.1 µg/mL (≈ 0.148 µM). The “Percent Inhibition” value is reported as 95% in series [4] (20.0 mg/kg), 98% in series [4] (40.0 mg/kg) and 98% in series [4] (80.0 mg/kg). The “Activity (overall)” value in series [4] is given as “+++ (95-100% Inhibition)”.
Take `Cc1ccc(C(Nc2nc(N)nc3c2ncn3[C@@H]2O[C@H](CO)[C@@H](O)C2(F)F)(c2ccccc2)c2ccc(C(=O)NC(C)C)cc2)cc1` (stereo partly shown) [MeT]: the IC50 in series [3] was determined as 0.8 µg/mL (≈ 1.24 µM). The “Percent Inhibition” value in series [4] (20.0 mg/kg) is 41%; in series [4] (40.0 mg/kg), 58%; in series [4] (80.0 mg/kg), 92%. Besides, the “Activity (overall)” value in series [4] is “++ (80-94% Inhibition)”.
In the case of `CC(C)NC(=O)c1ccc(C(Nc2nc(N)nc3c2ncn3[C@@H]2O[C@H](CO)[C@@H](O)C2(F)F)(c2ccccc2)c2ccccc2)cc1` [T, N-Isopropyl-4-[bis-phenyl-6-N-[2-amino-9-(2'-deoxy-2',2'-difluoro-β-ribofuranosyl)purinyl]methyl]benzamide], the “fragmentation under pH conditions used” value in series [5] (pH 5.40, 6.40, 7.40, up to t = 800) was “no fragmentation”. The IC50 in series [3] is 1.7 µg/mL (≈ 2.7 µM). For the same compound, the entries for the “Percent Inhibition” value in series [4] (17.5 mg/kg), in series [4] (35.0 mg/kg) and in series [4] (70.0 mg/kg) were 14%, 28% and 04%, respectively. Besides, the “Activity (overall)” value in series [4] is reported as “- (<60% Inhibition)”.
As for `COc1ccc(C(Nc2nc(N)nc3c2ncn3[C@@H]2O[C@H](CO)[C@@H](O)C2(F)F)(c2ccc(OC)cc2)c2cccc(C(=O)NC(C)C)c2)cc1` [mDMT, N-Isopropyl-3-[bis-(4-methoxyphenyl)-6-N-[2-amino-9-(2'-deoxy-2',2'-difluoro-β-ribofuranosyl)purinyl]methyl]benzamide], the t1/2 in series [5] (setting [6]) is 2.35 h; in series [5] (setting [7]), 23.3 h; in series [5] (setting [8]) it was 133.3 h. Moreover, the IC50 in series [3] turned out to be 0.084 µg/mL (≈ 0.122 µM).
